Assay results published in PMC9317316, “Synthesis and Evaluation of Some New 4H-Pyran Derivatives as Antioxidant, Antibacterial and Anti-HCT-116 Cells of CRC, with Molecular Docking, Antiproliferative, Apoptotic and ADME Investigations” (Pharmaceuticals, 2022).
“And” between values parts separate entries of the source, which are not always exact repeats. Identical values can stand only once. Like-named read-outs stand apart in the source and are kept apart here.

Key:
[1] = DPPH radical scavenging assay; details: for IC50: 0.03 to 1 mg/mL, 1 h, mean ± SD, triplicate, read-out: IC50 (mM) for DPPH Scavenging Potency
Protocol: The IC50 values for DPPH were calculated from the plot of the scavenging effect against the compound concentration.
The compounds’ capacities to scavenge the stable radical 1,1 diphenyl-2-picrylhydrazyl (DPPH) formed in solution by donation of a hydrogen atom or an electron was investigated according to the method described by Bersuder and coworkers. Due to the fact that the initial blue/purple solution of diphenyl picrylhydrazine changes to yellow in the presence of compounds with a capacity to scavenge DPPH free radicals, this reaction is used as a measure of a compound’s ability to scavenge any free radical. Briefly, a 0.5 mL volume of DPPH ethanolic solution was mixed with an equal volume of each sample concentration (0.03 to 1 mg/mL), shaken strongly and incubated at room temperature for 1 h in darkness. The absorbance of the residual DPPH radicals was measured at 519 nm and compared to that of the control (without the tested compound). DPPH radical scavenging was calculated using the following formula: Scavenging effect (%) = (1 − Acompound/AControl) × 100, where Acompound and Acontrol are the absorbances of the tested compound and of the control, respectively. A plot of the scavenging effect (%) versus the sample concentration was also performed to determine the compound concentration providing 50% inhibition (IC50).

[2] = test system: S. aureus (ATCC 25923); assay: Antibacterial agar diffusion method (inhibition zone); assay type: cell-based
Protocol: (§1) The results for the in vitro antibacterial properties of the synthesized compounds against five Gram-positive and four Gram-negative human-pathogenic strains, which were assessed by both the agar diffusion method (based on inhibition zone (IZ)) and the broth dilution bioassay (for the determination of the half-maximal inhibitory concentration (IC50) values), using ampicillin as the reference antibiotic drug, are shown in Table 2 and Table 3.
(§2) The antibacterial activity of all synthesized compounds was evaluated against the Gram-negative strains E. coli (ATCC 25966), K. pneumonia (ATCC 700603), P. aeruginosa (ATCC 27853) and S. enteric (ATCC 43972) and against the Gram-positive strains B. cereus (ATCC 14579), B. subtilis (ATCC 6633), E. faecalis (ATCC 29122), S. aureus (ATCC 25923) and S. epidermidis (ATCC 14990), using the agar diffusion method through measuring the appearance of the inhibition zone on the surface of the top agar, as reported by Berghe and Vlietinck. Ampicillin (10 µg/well) was used as the positive reference standard. Bacterial viability was also investigated by determining the colony-forming ability (CFU) of bacteria incubated at different time intervals without or with appropriate amounts of the compound, which were mixed with 2 ×10^7 CFU/mL in sterile BHI and incubated under shaking for 60 min at 37 °C. Samples were serially diluted into sterile BHI, streaked onto media agar plates and incubated for 24 h at 37 °C. The antibacterial potency of the tested compounds was expressed as the residual number of CFUs with reference to the initial inoculums. The results presented as the half-maximal (50 %) inhibitory concentration (IC50) values are the means of three different measurements.

[3] = test system: B. subtilis (ATCC 6633); assay: as above; assay type: cell-based
Protocol: as §1, §2

[4] = test system: S. enteric (ATCC 43972); assay: as above; assay type: cell-based
Protocol: as §1, §2

[5] = test system: B. cereus (ATCC 14579); assay: as above; assay type: cell-based
Protocol: as §1, §2

[6] = test system: K. pneumonia (ATCC 700603); assay: as above; assay type: cell-based
Protocol: as §1, §2

[7] = test system: S. epidermidis (ATCC 14990); assay: as above; assay type: cell-based
Protocol: as §1, §2

[8] = test system: E. coli (ATCC 25966); assay: as above; assay type: cell-based; details: E. coil (ATCC 25966)
Protocol: as §1, §2

[9] = test system: P. aeruginosa (ATCC 27853); assay: as above; assay type: cell-based
Protocol: as §1, §2

[10] = test system: E. faecalis (ATCC 29122); assay: as above; assay type: cell-based
Protocol: as §1, §2

[11] = test system: HCT-116 cells; assay: Cell viability (cytotoxicity, LDH release) assay; assay type: cell-based; details: Homo sapiens, 24 h; for viability at 100 µg/mL: read-out: percent of viable cells
Protocol: The synthesized compounds were also examined at four concentrations (10, 25, 50 and 100 µg/mL) for their cytotoxic effects on human colorectal cancer HCT-116 cells after their incubation together for 24 h.
Cytotoxic potency was examined for a human colon cancer cell line HCT-116 (American Type Culture Collection; Manassas, VA, USA) using various amounts of each compound (10, 25, 50 and 100 µg). Samples were diluted in Dulbecco’s Modified Eagle’s Medium, consisting of 10% Fetal Bovine Serum, and added to cells grown and cultured for 24 h in a 5% CO2-humidified incubator at 37 °C. Then, the activity of lactate dehydrogenase released from damaged cells was determined in the collected supernatant aliquots using an ELISA endpoint assay (Benchmark Plus, Bio-Rad, Hercules, CA, USA). As positive and negative controls, respectively, 0.1% Triton X-100 in the assay medium and the assay medium only were used. Cell viability, shown as mean values ± SDs (n = 3), was expressed as a relative percentage of the OD values determined at 600 nm in compound-treated cells and the control.

[12] = Reducing power assay (FRAC, Fe3+ to Fe2+); details: 0-1 mg/mL, absorbance 700 nm
Protocol: Secondly, FRAC was determined over the concentration range of 0.0−1 mg/mL via monitoring Fe^3+−Fe^2+ transformation in the presence of the studied compounds and the reference antioxidant BHT to estimate the values of efficient concentration (EC50), expressed in mM.
The reducing power of the studied compounds was assessed according to Oyaizu’s method. Briefly, different concentrations (ranging from 0 to 1 mg/mL) of each tested compound were first mixed with 1 mL of 0.2 M sodium phosphate buffer (pH 6.6) and 1 mL of 1% potassium ferricyanide (K3Fe(CN)6) and incubated at 50 °C for 20 min. After the addition of 1.25 mL of 20% trichloroacetic acid (TCA), the mixture was centrifuged for 10 min at 3000 rpm and the upper layer solution was then mixed with 0.5 mL of 0.1% fresh ferric chloride and an equal volume of deionized water. Finally, the absorption of the resulting mixture was measured at 700 nm using a UV spectrophotometer against distilled water as the blank, while butylated hydroxytoluene (BHT) was used as a positive control. The sample ferric reducing power capability was indicated by increased absorbance.

[13] = test system: S. aureus (ATCC 25923); assay: Antibacterial viability (CFU) assay, IC50; assay type: cell-based; details: Staphylococcus aureus, ATCC25923
Protocol: as §1, §2

[14] = test system: B. subtilis (ATCC 6633); assay: Antibacterial viability (CFU) assay, IC50; assay type: cell-based
Protocol: as §1, §2

[15] = test system: S. enteric (ATCC 43972); assay: Antibacterial viability (CFU) assay, IC50; assay type: cell-based; details: read-out: IC50
Protocol: as §1, §2

[16] = test system: B. cereus (ATCC 14579); assay: Antibacterial viability (CFU) assay, IC50; assay type: cell-based; details: Bacillus cereus, ATCC14579
Protocol: as §1, §2

[17] = test system: K. pneumonia (ATCC 700603); assay: Antibacterial viability (CFU) assay, IC50; assay type: cell-based; details: Klebsiella pneumoniae, ATCC700603
Protocol: as §1, §2

[18] = test system: S. epidermidis (ATCC 14990); assay: Antibacterial viability (CFU) assay, IC50; assay type: cell-based; details: Staphylococcus epidermidis, ATCC14990
Protocol: as §1, §2

[19] = test system: E. coli (ATCC 25966); assay: Antibacterial viability (CFU) assay, IC50; assay type: cell-based; details: Escherichia coli, ATCC25966; E. coil (ATCC 25966)
Protocol: as §1, §2

[20] = test system: P. aeruginosa (ATCC 27853); assay: Antibacterial viability (CFU) assay, IC50; assay type: cell-based; details: Pseudomonas aeruginosa, ATCC27853
Protocol: as §1, §2

[21] = test system: E. faecalis (ATCC 29122); assay: Antibacterial viability (CFU) assay, IC50; assay type: cell-based; details: Enterococcus faecalis, ATCC29122
Protocol: as §1, §2

[22] = read-out: Mean IC50 (µM) of cytotoxicity
[23] = read-out: Mean IC50 (µg/mL) of cytotoxicity
[24] = Bacillus subtilis, ATCC6633, B. subtilis (ATCC 6633)

With `CC1=C(C(=O)OCc2ccccc2)C(c2ccc(F)cc2)C(C#N)=C(N)O1` (stereo not shown) [4i, 6-Amino-5-cyano-4-(4-fluoro-phenyl)-2-methyl-4H-pyran-3-carboxylic acid benzyl ester] the IC50 [1] was 1.78 ± 0.115 mM, the “DPPH Radical Scavenging Effenciency (%) at 1 mg/mL” value [1] was 26.05 ± 1.06% and the melting point was 124 to 126 °C. The “IZ (mm)” value [2] was 9.50 ± 2.12 mm, the “IZ (mm)” value [3] was 9.50 mm and 9.50 ± 0.71 mm and the “IZ (mm)” value [4] was 8.0 ± 1.4 mm. The “IZ (mm)” value [5] was 14.50 ± 0.71 mm, the “IZ (mm)” value [6] was 6.5 ± 0.7 mm and the “IZ (mm)” value [7] was 11.50 ± 0.71 mm. The “IZ (mm)” value [8] was 5.5 ± 0.71 mm, the “IZ (mm)” value [9] was 8.5 ± 0.7 mm and the “IZ (mm)” value [10] was 6.50 ± 0.71 mm. The viability at 100 µg/mL [11] was 11 to 32.5%, the IC50 [11, 22] was 181 ± 12.4 µM and the IC50 [11, 23] was 66 ± 4.53 µg/mL. The EC50 [12] was 274 ± 39 µM, the IC50 [13] was 40.2 ± 1.37 µM and the IC50 ([14]; B. subtilis (ATCC 6633)) was 31.6 ± 1.95 µM. The IC50 [14, 24] was 23.6 to 36.8 µM, the IC50 [15] was 91.5 ± 2.74 µM and the IC50 [16] was 38 ± 1.37 µM. It also gave an IC50 [17] of 79.9 ± 3.02 µM, an IC50 [18] of 46 ± 0.96 µM and an IC50 [19] of 82.6 ± 1.65 µM. The IC50 [20] was 62 ± 2.2 µM and the IC50 [21] was 37.5 ± 1.37 µM.

For `CC1=C(C(=O)OCc2ccccc2)C(c2ccccc2Cl)C(C#N)=C(N)O1` (stereo not shown) [4l, 6-Amino-4-(2-chloro-phenyl)-5-cyano-2-methyl-4H-pyran-3-carboxylic acid benzyl ester], the IC50 [1] was 0.919 ± 0.026 mM, the “DPPH Radical Scavenging Effenciency (%) at 1 mg/mL” value [1] was 70.20% and 70.20 ± 1.70% and the melting point was 162 to 164 °C. The “IZ (mm)” value [2] was 9.00 mm and 9.00 ± 1.41 mm, the “IZ (mm)” value [3] was 11.50 ± 0.71 mm and the “IZ (mm)” value [4] was 4.0 ± 0.0 mm. For the same compound, the “IZ (mm)” value [5] was 10.00 ± 1.41 mm, the “IZ (mm)” value [6] was 2.5 ± 0.7 mm and the “IZ (mm)” value [7] was 10.50 ± 0.71 mm. For the same compound, the “IZ (mm)” value [8] was 3.5 ± 0.7 mm, the “IZ (mm)” value [9] was 4.5 ± 0.7 mm and the “IZ (mm)” value [10] was 6.00 ± 1.41 mm. The viability at 100 µg/mL [11] was 11 to 32.5%, the IC50 [11, 22] was 93.4 ± 4.63 µM and the IC50 [11, 23] was 35.5 ± 1.77 µg/mL. For the same compound, the EC50 [12] was 801 ± 19 µM, the IC50 [13] was 31.1 ± 0.55 µM and the IC50 ([14]; B. subtilis (ATCC 6633)) was 32.6 ± 1.5 µM. It also gave an IC50 [14, 24] of 23.6 to 36.8 µM, an IC50 [15] of 77.6 ± 1.58 µM and an IC50 [16] of 33.2 ± 2.42 µM. The IC50 [17] was 77.5 ± 7.08 µM, the IC50 [18] was 33.4 ± 1.1 µM and the IC50 [19] was 90.1 ± 2.63 µM. For the same compound, the IC50 [20] was 72.7 ± 2.63 µM and the IC50 [21] was 37.8 ± 1.5 µM.
